pIC50: −log10 of the molar value.
Assays:
[1] = Human microsome stability assay; type: in vitro ADME; settings: 1 μM test compound, 0.5 mg/mL protein
Protocol: The human microsomal stability assay is used for early assessment of metabolic stability of a test compound in human liver microsomes.
Human liver microsomes (Cat. NO.: 452117, Corning, USA; Cat. NO.: H2610, Xenotech, USA) were preincubated with test compound for 10 minutes at 37° C. in 100 mM potassium phosphate buffer, pH 7.4. The reactions were initiated by adding NADPH regenerating system. The final incubation mixtures contained 1 μM test compound, 0.5 mg/mL liver microsomal protein, 1 mM MgCl2, 1 mM NADP, 1 unit/mL isocitric dehydrogenase and 6 mM isocitric acid in 100 mM potassium phosphate buffer, pH 7.4. After incubation times of 0, 3, 6, 9, 15 and 30 minutes at 37° C., 300 μL of cold ACN (including internal standard) was added to 100 μL incubation mixture to terminate the reaction. Following precipitation and centrifugation, the amount of compound remaining in the samples were determined by LC-MS/MS. Controls of no NADPH regenerating system at zero and 30 minutes were also prepared and analyzed. The results were categorized as: low (<7.0 mL/min/kg), medium (7.0˜16.2 mL/min/kg) and high (16.2-23.2 mL/min/kg).

human TLR7 = molecular target: T1, human TLR7 (Homo sapiens, UniProt Q9NYK1); test: HEK293-Blue-hTLR-7 cells assay (SEAP reporter, R848 stimulation); type: cell-based; settings: HEK293-Blue-hTLR7 cells, R848, 20 hrs
T1 construct: host or cells: HEK293 (HEK-Blue hTLR7)
T1 sequence (Q9NYK1 27-1049): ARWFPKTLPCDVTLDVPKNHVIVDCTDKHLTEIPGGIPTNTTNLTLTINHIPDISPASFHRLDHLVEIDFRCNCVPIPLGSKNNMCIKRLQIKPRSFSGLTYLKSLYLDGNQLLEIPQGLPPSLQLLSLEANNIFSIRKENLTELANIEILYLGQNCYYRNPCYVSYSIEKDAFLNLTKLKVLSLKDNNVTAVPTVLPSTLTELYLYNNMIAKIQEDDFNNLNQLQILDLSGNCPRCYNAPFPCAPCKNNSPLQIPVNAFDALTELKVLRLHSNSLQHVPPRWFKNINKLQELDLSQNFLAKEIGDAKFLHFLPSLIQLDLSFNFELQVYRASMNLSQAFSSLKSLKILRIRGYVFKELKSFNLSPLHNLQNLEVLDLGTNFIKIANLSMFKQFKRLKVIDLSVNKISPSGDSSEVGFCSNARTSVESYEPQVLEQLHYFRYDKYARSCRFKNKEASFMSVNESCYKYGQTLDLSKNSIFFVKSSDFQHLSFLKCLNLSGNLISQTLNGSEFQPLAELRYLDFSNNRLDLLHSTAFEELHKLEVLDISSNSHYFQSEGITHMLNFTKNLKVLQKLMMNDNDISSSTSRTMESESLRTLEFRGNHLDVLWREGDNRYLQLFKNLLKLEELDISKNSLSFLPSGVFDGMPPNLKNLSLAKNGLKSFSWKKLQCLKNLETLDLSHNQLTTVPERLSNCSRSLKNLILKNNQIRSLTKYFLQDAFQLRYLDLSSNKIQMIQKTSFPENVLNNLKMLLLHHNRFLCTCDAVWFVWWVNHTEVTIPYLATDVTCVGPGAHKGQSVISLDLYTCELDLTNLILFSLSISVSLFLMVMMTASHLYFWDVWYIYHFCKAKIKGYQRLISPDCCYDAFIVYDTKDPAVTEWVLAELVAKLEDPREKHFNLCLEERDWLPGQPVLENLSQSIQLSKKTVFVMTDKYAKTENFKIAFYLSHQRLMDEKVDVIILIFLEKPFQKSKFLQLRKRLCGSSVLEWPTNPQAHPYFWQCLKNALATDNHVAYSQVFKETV
Protocol: The following tests were carried out in order to determine the activity of the compounds of formula (I) in HEK293-Blue-hTLR-7/8/9 cells assay.
HEK293-Blue-hTLR-7 Cells Assay:
A stable HEK293-Blue-hTLR-7 cell line was purchased from InvivoGen (Cat. #: hkb-htlr7, San Diego, Calif. USA). These cells were originally designed for studying the stimulation of human TLR7 by monitoring the activation of NF-κB. A SEAP (secreted embryonic alkaline phosphatase) reporter gene was placed under the control of the IFN-β minimal promoter fused to five NF-κB and AP-1-binding sites. The SEAP was induced by activating NF-κB and AP-1 via stimulating HEK-Blue hTLR7 cells with TLR7 ligands. Therefore the reporter expression was declined by TLR7 antagonist under the stimulation of a ligand, such as R848 (Resiquimod), for incubation of 20 hrs. The cell culture supernatant SEAP reporter activity was determined using QUANTI-Blue™ kit (Cat. #: rep-qbl, Invivogen, San Diego, Calif., USA) at a wavelength of 640 nm, a detection medium that turns purple or blue in the presence of alkaline phosphatase.
HEK293-Blue-hTLR7 cells were incubated at a density of 250,000˜450,000 cells/mL in a volume of 170 μL in a 96-well plate in Dulbecco's Modified Eagle's medium (DMEM) containing 4.5 g/L glucose, 50 U/mL penicillin, […], […], 2 mM L-glutamine, 10% (v/v) heat-inactivated fetal bovine serum with addition of 20 μL A test compound in a serial dilution in the presence of final DMSO at 1% and 10 μL of 20 uM R848 in above DMEM, perform incubation under 37° C. in a CO2 incubator for 20 hrs. Then 20 μL of the supernatant from each well was incubated with 180 μQuanti-blue substrate solution at 37° C. for 2 hrs and the absorbance was read at 620˜655 nm using a spectrophotometer. The signalling pathway that TLR7 activation leads to downstream NF-κB activation has been widely accepted, and therefore similar reporter assay was modified for evaluating TLR7 antagonist.

SMILES | clearance in human liver microsomes [1] [mL/min/kg] | pIC50 (human TLR7)
C[C@@H]1CN(c2ccc(C(F)(F)F)c3ncccc23)C[C@H](C(=O)NC2CC3CCCC(C2)N3)O1 (single isomer, unassigned) [Example 34A] | 6.24 | 8.40
C[C@@H]1CN(c2ccc(C(F)(F)F)c3ncccc23)C[C@H](C(=O)NC2CC3CCCC(C2)N3)O1 (single isomer, unassigned) [Example 34B] | 6.17 | 8.15
C[C@H]1C[C@@H](N)CN(c2ccc(C(F)(F)F)c3ncccc23)C1 [Example 1, (3R,5S)-5-methyl-1-[8-(trifluoromethyl)-5-quinolyl]piperidin-3-amine] | 6.15 | 8.30
C[C@@H]1CN(c2ccc(C(F)(F)F)c3ncccc23)C[C@H](C(=O)NC2CNC[C@@H]2F)O1 (stereo partly drawn) [Example 2, cis-(2R,6R)-N-(4-fluoropyrrolidin-3-yl)-6-methyl-4-[8-(trifluoromethyl)-5-quinolyl]morpholine-2-carboxamide] | 6.15 | 7.28
C[C@@H]1CN(c2ccc(C(F)(F)F)c3ncccc23)C[C@H](C(=O)NC2CCN(C)CC2)O1 [Example 5, (2R,6R)-6-methyl-N-(1-methyl-4-piperidyl)-4-[8-(trifluoromethyl)-5-quinolyl]morpholine-2-carboxamide] | 6.15 | 8.15
C[C@@H]1CN(c2ccc(C(F)(F)F)c3ncccc23)C[C@H](C(=O)NCC(C)(C)N)O1 [Example 6, (2R,6R)-N-(2-amino-2-methyl-propyl)-6-methyl-4-[8-(trifluoromethyl)-5-quinolyl]morpholine-2-carboxamide] | 6.15 | 7.51
C[C@@H]1CN(c2ccc(Br)c3ncccc23)C[C@H](C(=O)NC2CCN(C)CC2)O1 [Example 42, (2R,6R)-4-(8-bromo-5-quinolyl)-6-methyl-N-(1-methyl-4-piperidyl)morpholine-2-carboxamide] |  | 8.30
C#Cc1ccc(N2C[C@@H](C)O[C@@H](C(=O)NC3CCN(C)CC3)C2)c2cccnc12 [Example 43, (2R,6R)-4-(8-ethynyl-5-quinolyl)-6-methyl-N-(1-methyl-4-piperidyl)morpholine-2-carboxamide] |  | 8.00
C[C@@H]1CN(c2ccc(C(F)(F)F)c3ncccc23)C[C@H](C(=O)NC2C[C@H]3C[C@@H]2CN3)O1 (stereo partly shown) [Example 44] |  | 7.74
C[C@@H]1CN(c2ccc(C(F)(F)F)c3ncccc23)C[C@H](C(=O)NC2C3CCCC2CNC3)O1 (stereo partly drawn) [Example 45, (2R,6R)-N-(3-azabicyclo[3.3.1]nonan-9-yl)-6-methyl-4-[8-(trifluoromethyl)-5-quinolyl]morpholine-2-carboxamide] |  | > 8.52
C[C@@H]1CN(c2ccc(C(F)(F)F)c3ncccc23)C[C@H](C(=O)NCC2CNCCO2)O1 (stereo partly drawn) [Example 48, (2R,6R)-6-methyl-N-(morpholin-2-ylmethyl)-4-[8-(trifluoromethyl)-5-quinolyl]morpholine-2-carboxamide] |  | 8.40

Further lines, results first:

clearance in human liver microsomes [1] [mL/min/kg] | pIC50 (human TLR7) | SMILES
6.15 | 7.39 | C[C@@H]1CN(c2ccc(C(F)(F)F)c3ncccc23)C[C@H](C(=O)N[C@@H]2CNC[C@@H]2F)O1 (single isomer, unassigned) [Example 2A]
6.15 | 7.82 | C[C@@H]1CN(c2ccc(C(F)(F)F)c3ncccc23)C[C@H](C(=O)N[C@H]2CNC[C@H]2F)O1 (single isomer, unassigned) [Example 2B]
6.15 | 7.70 | C[C@@H]1CN(c2ccc(C(F)(F)F)c3ncccc23)C[C@H](C(=O)NC2CC3CNCC32)O1 (single isomer, unassigned) [Example 49B]
6.15 | 8.10 | C[C@@H]1CN(c2ccc(C(F)(F)F)c3ncccc23)C[C@H](C(=O)NC2CC3CNCC32)O1 (single isomer, unassigned) [Example 49C]
